We go through two molecules from ChEMBL document CHEMBL5614411, “Exploring novel A2AAR antagonists: Design, synthesis, and evaluation of 2,6,9-trisubstituted purine derivatives as promising antifibrotic agents” (Bioorg Med Chem, 2024).

Activity calls are given as the source filed them. The rule behind the calls is not given here.

Common to all, as to assay type: functional, cell-based
Assay [1] has as its system LX-2. Description: Antifibrotic activity against human LX-2 cells overexpressing human Adenosine receptor A2a assessed as downregulation of alpha-SMA expression at 10 uM incubated for 18 hrs by Western blotting analysis.
For assay [2], the system named is LX-2. Description: Antifibrotic activity against human LX-2 cells overexpressing human Adenosine receptor A2a assessed as downregulation of PKA phosphorylation at Thr197 residue at 10 uM incubated for 18 hrs by Western blotting analysis.
Assay [3] deals with LX-2. Description: Antifibrotic activity against human LX-2 cells overexpressing human Adenosine receptor A2a assessed as downregulation of fibronectin expression at 10 uM incubated for 18 hrs by Western blotting analysis.
In assay [4] the test system is LX-2. Description: Antifibrotic activity against human LX-2 cells overexpressing human Adenosine receptor A2a assessed as downregulation of COL1A1 expression at 10 uM incubated for 18 hrs by Western blotting analysis.
In another assay the target is Adenosine receptor A2a (Homo sapiens, UniProt P29274). Description: Antagonist activity at human Adenosine receptor A2a transfected in HEK293 cells co-expressing CRE-luciferase plasmid assessed as reduction in CRE promoter activity by measuring effective concentration incubated for 18 hrs by luciferase based CRE reporter assay.
Chain of Adenosine receptor A2a (P29274 whole entry): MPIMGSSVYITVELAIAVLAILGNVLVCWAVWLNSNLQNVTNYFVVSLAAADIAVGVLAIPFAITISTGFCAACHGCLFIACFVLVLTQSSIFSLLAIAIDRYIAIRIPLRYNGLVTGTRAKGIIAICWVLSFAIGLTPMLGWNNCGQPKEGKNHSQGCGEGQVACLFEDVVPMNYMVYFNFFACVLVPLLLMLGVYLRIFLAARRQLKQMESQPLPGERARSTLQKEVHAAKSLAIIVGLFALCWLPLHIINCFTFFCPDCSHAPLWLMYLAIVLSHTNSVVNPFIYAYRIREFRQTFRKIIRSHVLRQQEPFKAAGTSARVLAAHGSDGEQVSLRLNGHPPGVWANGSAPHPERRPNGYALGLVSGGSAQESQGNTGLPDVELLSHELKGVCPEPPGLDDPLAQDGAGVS

For the molecule `CNc1nc(C#Cc2ccccc2)nc2c1ncn2Cc1cc(OC)c(OC)c(OC)c1`, the result with LX-2 [1], in the assay on LX-2 [2], with LX-2 [3] and in the assay with LX-2 [4] was inactive.
As for `CNc1nc(C#Cc2ccccc2)nc2c1ncn2Cc1ccccc1`, the result in the assay with LX-2 [1], with LX-2 [2], with LX-2 [3] and with LX-2 [4] was Active. For the same molecule, the EC50 on Adenosine receptor A2a was 14.6 µM.
